Source: patent publication US7235584B2, “Non-psychotropic cannabinoids” (Pharmos Corporation, priority 2000, dated 2007)

Columns and labels:
[1] = test system: T1, nitric oxide synthase (NOS); assay: Inhibition of nitric oxide synthase, fluorimetric nitrite assay in LPS-stimulated macrophage supernatants; assay type: cell-based; conditions: macrophage cell cultures
T1 construct: endogenous in cells
Experimental: As one aspect of the anti-oxidative potential of the novel analogs they were tested for their ability to inhibit the enzyme nitric oxide synthase (NOS). This assay can also serve as another indication of the anti-inflammatory cascade, as well as the anti-oxidative mechanisms.
The final products of NOS are Nitrite (NO2) and Nitrate (NO3). The in vitro fluorimetric assay provides an accurate method for the measurement of the Nitrite, which is the majority of NO products. The principle of the fluorimetric assay is based on the addition of DAN (2,3-diaminonaphthalene) to the aliquots of the supernatants collected from macrophage cell cultures incubated with the new analogs and stimulated with LPS. Following, NaOH was added to convert Nitrite to a fluorescent compound 1(H)-naphthtriazole. The fluorescence was measured immediately in a fluorimeter using excitation wavelength of 365 nm and an emission wavelength of 450 nm.

transient MCAo in rats = assay: Transient MCAo evaluated by the staircase test; assay type: in vivo, Sprague Dawley rats; conditions: for staircase contralateral performance, pellet consumption (in words): administered 2 hours after start of MCAo
From the text: The test challenges fine motor, sensory and stereognostic function of the cortex in enabling the forepaw (hand) to identify, grasp and accurately manipulate small objects such as food pellets. Loss of the ability to identify, grasp and manipulate small objects reflects a lesion of the fronto-parietal cortex and is a common and crippling deficit after stroke in humans.
The materials for this procedure are identical to those from Physiological Example 5, except for the different concentrations of PRS-211,095. The procedural differences are as follows: • Male Sprague Dawley rats, 230–270 gr (Harlan, Israel) were used. The following compounds and their respective concentrations were tested:
Dexanabinol and analogs PRS-211,095 and PRS-211,220 in PEG ethanol cosolvent 50 mg/ml. Dexanabinol, the analogs and their vehicle were diluted in Intralipid® 20% (Pharmacia) prior to drug administration.
The procedure is essentially as described in Montoya et al. (Montoya, Campbell-Hope, Pemberton and Dunnet, J. Neurosci. Meth. 36:219–228,1991) Animals were kept under mild food deprivation for 3–5 days, receiving 15-gr. food once a day (between 16:00 and 17:00) and free access to water.
In brief, the staircase box contains two rows of seven stairs in each. Two 45 mg food pellets were placed on each step. Animals were placed in the box for 15 minutes sessions. At the end of the session the number of eaten (grasped) and displaced pellets was counted and recorded. Animals were tested twice a day, 4 hours apart. The first session was performed between 8–9 AM and second between 12–13 PM. The animals were trained until they grasped (ate) at least 8 pellets from each set of stairs for two consecutive sessions. Up to one week after the end of the successful training session the animals underwent transient MCAo.
Transient MCAO was performed in essentially the same manner as described in Physiological example 5 with the following modification at step i:
Two minutes prior to thread removal rats were re-anesthetized and administered IV with Dexanabinol 5 mg/kg, analogs
PRS-211,220 or PRS-211,095 at 0.5, 2.5, 5 or 10 mg/kg or vehicle 5 ml/kg. One additional group was sham-treated.
Animals were allowed to recover from the surgery for five days. The mild food deprivation was re-employed during the days following the ischemic insult. They were tested in the staircase box using the above method for 9–12 days. Animals were weighed twice a week during this period.
At the end of the evaluation period, animals were euthanized with pentobarbitone 100 mg/kg IP. The animals were perfused through the heart with heparinized 4% formaldehyde solution in PBS (pH 7.4). Brains were then removed, and kept in the same solution for at least 24h. Then the brains—from the rostral side of the cortex to the cerebellum—were sunk in 30% sucrose in PBS, cryosectioned (20 μm), dried and stained with thionin for histological evaluation of the brain infarct volume. Eight sections at the levels of: 3.3;+2.8;+1.8; +0.8; −0.4;−1.4; −2.2; and −3.4 from Bregma were measured (Swanson, Rat Brain Atlas, 1992). Sections were captured by a CCD camera (V-tech MP-470) and image analyzed (Scion image 1.62A). Infarct size was determined from the series of the 8 sections by either calculation of the infarct volume (mm3) by summing the series of mean lesion areas of two adjacent sections multiplied by the distance between them or calculation of the mean infarct size as percentage of the contralateral hemisphere size; calculation of the mean of the surviving ipsilateral side as percentage of the contralateral hemisphere size; calculation of the mean ipsilateral side ventricle as percentage of the contralateral hemisphere ventricle.
• a. The infarct size was compared using ANOVA (analysis of variance) followed by Duncan's post hoc test. • b. The staircase task performance was evaluated after collecting the data and compressing it into four blocks of six trials: […]

cannabimimetic activity = conditions: doses several thousand times higher than the ED50 of HU-210; cited from earlier work
kainic acid binding = assay: Kainic acid binding to rat forebrain membranes
AMPA binding = AMPA binding to rat forebrain membranes
PGE2 = assay: Inhibition of prostaglandin (PGE2) synthesis in LPS-stimulated macrophage cell cultures; assay type: cell-based
Experimental: The inhibitory effect of the new derivatives of Dexanabinol on prostaglandin synthesis is evaluated in macrophage cell cultures following LPS exposure to induce the inflammatory response. These assays are an indication of the anti-inflammatory activity of the individual analogs.
The inhibitory effect of Dexanabinol new analogs on prostaglandin synthesis was evaluated in macrophage cell cultures. Macrophages were seeded in a 24 well NUNC plates, and incubated with DMEM medium for 24 hours to allow attachment to plastic. The wells were vacuumed and a different new analog is added for 1 hour. Treatments are done in triplicates. Following, LPS was added for a duration of 3–24 extra hours, to induce the inflammatory response. The supernatants were collected and analyzed for PGE2 by enzyme immunoassay technique Biotrak kit (Amersham Pharmacia Biotech).

[2] = 5 mg/kg, administered 3 hours following transient MCAo

T1 sequence (P35228 whole entry): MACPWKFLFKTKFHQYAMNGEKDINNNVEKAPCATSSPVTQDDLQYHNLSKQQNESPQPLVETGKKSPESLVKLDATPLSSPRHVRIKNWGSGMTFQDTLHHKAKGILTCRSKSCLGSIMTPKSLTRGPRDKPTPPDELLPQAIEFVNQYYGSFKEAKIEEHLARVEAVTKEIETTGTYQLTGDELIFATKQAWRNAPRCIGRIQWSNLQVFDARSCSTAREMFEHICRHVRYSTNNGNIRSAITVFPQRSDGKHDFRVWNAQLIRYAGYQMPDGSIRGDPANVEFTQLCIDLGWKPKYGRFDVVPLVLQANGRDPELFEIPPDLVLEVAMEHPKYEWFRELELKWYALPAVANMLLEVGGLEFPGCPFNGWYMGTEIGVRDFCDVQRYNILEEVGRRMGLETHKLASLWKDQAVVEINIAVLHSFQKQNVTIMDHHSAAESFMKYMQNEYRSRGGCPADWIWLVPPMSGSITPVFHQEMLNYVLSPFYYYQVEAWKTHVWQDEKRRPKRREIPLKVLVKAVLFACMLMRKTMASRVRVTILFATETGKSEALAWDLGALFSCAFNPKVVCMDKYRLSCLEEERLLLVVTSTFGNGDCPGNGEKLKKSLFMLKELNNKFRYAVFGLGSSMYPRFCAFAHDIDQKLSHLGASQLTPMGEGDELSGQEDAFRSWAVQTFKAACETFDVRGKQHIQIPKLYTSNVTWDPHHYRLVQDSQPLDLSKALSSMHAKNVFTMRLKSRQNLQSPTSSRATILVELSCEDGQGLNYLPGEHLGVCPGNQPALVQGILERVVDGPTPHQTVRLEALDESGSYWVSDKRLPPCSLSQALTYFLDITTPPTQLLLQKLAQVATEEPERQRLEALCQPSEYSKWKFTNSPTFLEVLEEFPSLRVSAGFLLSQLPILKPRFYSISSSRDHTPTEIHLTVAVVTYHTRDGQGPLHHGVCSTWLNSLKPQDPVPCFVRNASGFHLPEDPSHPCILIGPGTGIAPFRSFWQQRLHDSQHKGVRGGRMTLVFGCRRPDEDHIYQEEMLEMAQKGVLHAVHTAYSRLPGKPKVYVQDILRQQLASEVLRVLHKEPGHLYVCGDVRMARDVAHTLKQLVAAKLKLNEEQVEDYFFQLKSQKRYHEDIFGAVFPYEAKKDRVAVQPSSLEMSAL

CCCCCCC(C)(C)c1cc(O)c2c(c1)OC(C)(C)C1CC=C(CSc3ncc[nH]3)CC21 (single isomer, unassigned; (+)) [211,092-000]
inhibition at 10 µM [1]: 86%
increase in pellet consumption, session 3 (transient MCAo in rats; [2]): 58%
increase in pellet consumption, session 3 (transient MCAo in rats; 5 mg/kg, administered 6 hours following transient MCAo): 30%

CCCCCCC(C)(C)c1cc(O)c2c(c1)OC(C)(C)C1CC=C(Cn3ccnc3)CC21.Cl (single isomer, unassigned; (+)) [211,095-000, (+)-(3S ,4S )-6,6-Dimethyl-(1,1-dimethylheptyl)-1-hydroxy-9-(imidazolomethyl)-6a,7,10,10a-tetrahydro-6H-dibenzo[b,d]pyran]
inhibition at 10 µM [1]: 34%
staircase contralateral performance, pellet consumption (in words) (transient MCAo in rats; 0.5 mg/kg): moderately improved pellet consumption
protection of infarct volume (histopathology) (transient MCAo in rats; 2.5 mg/kg): No protection
staircase contralateral performance, pellet consumption (in words) (transient MCAo in rats; 2.5 mg/kg): moderately improved pellet consumption
displaced pellets parameter (transient MCAo in rats; 5 mg/kg): improved performance
staircase contralateral performance, pellet consumption (in words) (transient MCAo in rats; 5 mg/kg): robust improvement
increase in pellet consumption, session 3 (transient MCAo in rats; [2]): 17%
staircase contralateral performance, pellet consumption (in words) (transient MCAo in rats; 10 mg/kg): robust improvement

CCCCCCC(C)(C)c1cc(O)c2c(c1)OC(C)(C)[C@H]1CC=C(CO)CC21 (stereo partly drawn) [211,007-000, 1,1 dimethyl heptyl-(3S,4S)-7-hydroxy-Δ^6-tetrahydrocannabinol]
inhibition at 10 µM [1]: 20%
staircase contralateral performance, pellet consumption (in words) (transient MCAo in rats; 0.5 mg/kg): No improvement
displaced pellets parameter (transient MCAo in rats; 5 mg/kg): improved performance
cannabimimetic activity (in words) (cannabimimetic activity): inactive as a cannabimimetic
inhibition of kainic acid binding (kainic acid binding): unable to inhibit
inhibition of AMPA binding (AMPA binding): unable to inhibit

CCCCCCC(C)(C)c1cc(O)c2c(c1)OC(C)(C)[C@H]1CC=C(Cn3cccn3)C[C@H]21 [211,220-000, (+)-(3S,4S)-6,6-Dimethyl-(1,1-dimethylheptyl)-1-hydroxy-9-(pyrazolomethyl)-6a,7,10,10a-tetrahydro-6H-dibenzo[b,d]pyran]
inhibition at 10 µM [1]: 24%
displaced pellets parameter (transient MCAo in rats; 0.5 mg/kg): improved performance
increase in pellet consumption, session 3 (transient MCAo in rats; 0.5 mg/kg, administered 3 hours following transient MCAo): 27%
increase in pellet consumption, session 3 (transient MCAo in rats; 0.5 mg/kg, administered 6 hours following transient MCAo): 40%
inhibition at 10 µM (PGE2): 59%
